# From PubChem BioAssay AID330 (DTP/NCI, 2004)
# Where “and” joins values, the source holds several entries; their conditions need not be identical. Equal entries are not always repeated. Toxic doses and inconclusive results are not listed.
# Test system: P388 leukemia ip, CD2F1 mice, survival T/C
# Assay: NCI In Vivo Anticancer Drug Screen. Data for tumor model P388 Leukemia (intraperitoneal) in CD2F1 (CDF1) mice
# Settings: endpoint: median survival time, higher = longer survival
# In short: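 Mice carrying the transplanted tumor received test compound or vehicle. Survival was recorded in each group, and the value is the treated-group measurement divided by that of the vehicle-treated control group.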
# [1] = dose: 50.0 mg/kg/injection, schedule: Q01DX005 (ip), vehicle: Klucel (hydroxypropylcellulose) (HPC)
# [2] = dose: 100.0 mg/kg/injection, schedule: Q01DX005 (ip), vehicle: Klucel (hydroxypropylcellulose) (HPC)
# [3] = dose: 200.0 mg/kg/injection, schedule: Q01DX005 (ip), vehicle: Klucel (hydroxypropylcellulose) (HPC)
# [4] = dose: 50.0 mg/kg/injection, schedule: Q01DX009 (ip), vehicle: saline with Tween-80
# [5] = dose: 100.0 mg/kg/injection, schedule: Q01DX009 (ip), vehicle: saline with Tween-80
# [6] = dose: 200.0 mg/kg/injection, schedule: Q01DX009 (ip), vehicle: saline with Tween-80
# [7] = dose: 50.0 mg/kg/injection, schedule: Q01DX005 (ip), vehicle: saline with Tween-80
# [8] = dose: 100.0 mg/kg/injection, schedule: Q01DX005 (ip), vehicle: saline with Tween-80
# [9] = dose: 200.0 mg/kg/injection, schedule: Q01DX005 (ip), vehicle: saline with Tween-80
smiles,measurement,setting,value
COC1OCC(NC(=O)CNC(=O)CCCCCCCCCCCCC(C)C)C(O)C1O (stereo unspecified),T/C,"dose: 6.25 mg/kg/injection, schedule: Q01DX009 (ip), vehicle: distilled water + Tween-80",100 % of control
same,T/C,"dose: 12.5 mg/kg/injection, schedule: Q01DX009 (ip), vehicle: distilled water + Tween-80",93 % of control
same,T/C,"dose: 25.0 mg/kg/injection, schedule: Q01DX009 (ip), vehicle: distilled water + Tween-80",99 % of control
same,T/C,"dose: 50.0 mg/kg/injection, schedule: Q01DX009 (ip), vehicle: distilled water + Tween-80",104 % of control
same,T/C,"dose: 100.0 mg/kg/injection, schedule: Q01DX009 (ip), vehicle: distilled water + Tween-80",104 % of control
same,T/C,"dose: 200.0 mg/kg/injection, schedule: Q01DX009 (ip), vehicle: distilled water + Tween-80",108 % of control
C=C1CCC2C(C)(CO)C(O)CCC2(C)C1C/C=C1\C(=O)OCC1O (stereo unspecified),T/C,"dose: 25.0 mg/kg/injection, schedule: Q01DX005 (ip), vehicle: Klucel (hydroxypropylcellulose) (HPC)",109 % of control
same,T/C,[1],108 % of control
same,T/C,[2],114 % of control
same,T/C,[3],117 % of control
O=C(CCl)NCc1ccccc1,T/C,"dose: 100.0 mg/kg/injection, schedule: Q04DX003 (ip), vehicle: saline",98 % of control
same,T/C,"dose: 200.0 mg/kg/injection, schedule: Q04DX003 (ip), vehicle: saline",100 % of control
O=C1NN=C(c2ccc(Br)cc2)CS1,T/C,[4],92 % of control and 97 % of control
same,T/C,[5],101 % of control and 87 % of control
same,T/C,[6],113 % of control and 120 % of control
CCOC(=O)NC(=S)Nc1cn(C)cc1[N+](=O)[O-],T/C,[7],100 % of control
same,T/C,[8],100 % of control
same,T/C,[9],95 % of control
CN1CC[C@H]([C@@H](O)c2ccccc2)C1=O,T/C,"dose: 50.0 mg/kg/injection, schedule: Q01DX005 (ip), vehicle: saline",102 % of control
same,T/C,"dose: 100.0 mg/kg/injection, schedule: Q01DX005 (ip), vehicle: saline",102 % of control
same,T/C,"dose: 200.0 mg/kg/injection, schedule: Q01DX005 (ip), vehicle: saline",107 % of control
CCOC(=O)N/C=C/C(C)=O,T/C,"dose: 60.0 mg/kg/injection, schedule: Q01DX005 (ip), vehicle: saline with Tween-80",98 % of control
same,T/C,"dose: 120.0 mg/kg/injection, schedule: Q01DX005 (ip), vehicle: saline with Tween-80",100 % of control
same,T/C,"dose: 240.0 mg/kg/injection, schedule: Q01DX005 (ip), vehicle: saline with Tween-80",106 % of control
C=CCN(CC=C)P(=O)(N1CC1C)N1CC1C (stereo unspecified),T/C,"dose: 1.65 mg/kg/injection, schedule: Q01DX009 (ip), vehicle: water",166 % of control
same,T/C,"dose: 2.5 mg/kg/injection, schedule: Q01DX009 (ip), vehicle: water",157 % of control
same,T/C,"dose: 3.75 mg/kg/injection, schedule: Q01DX009 (ip), vehicle: water",118 % of control
same,T/C,"dose: 5.0 mg/kg/injection, schedule: Q01DX009 (ip), vehicle: saline",97 % of control
CCCCNc1ncnc2[nH]ncc12,T/C,"dose: 12.5 mg/kg/injection, schedule: Q01DX009 (ip), vehicle: saline with Tween-80",100 % of control
same,T/C,"dose: 12.5 mg/kg/injection, schedule: Q04DX003 (ip), vehicle: saline with Tween-80",90 % of control
same,T/C,"dose: 25.0 mg/kg/injection, schedule: Q01DX009 (ip), vehicle: saline with Tween-80",110 % of control
same,T/C,"dose: 25.0 mg/kg/injection, schedule: Q04DX003 (ip), vehicle: saline with Tween-80",95 % of control
same,T/C,[4],105 % of control
same,T/C,"dose: 50.0 mg/kg/injection, schedule: Q04DX003 (ip), vehicle: saline with Tween-80",90 % of control
CNc1cccc(NC)c1,T/C,"dose: 12.5 mg/kg/injection, schedule: Q01DX009 (ip), vehicle: water",105 % of control
same,T/C,"dose: 25.0 mg/kg/injection, schedule: Q01DX009 (ip), vehicle: water",112 % of control
NC1=C(O)C(=O)C2(O1)C(=O)Nc1ccccc12 (stereo unspecified),T/C,[1],100 % of control
same,T/C,[2],100 % of control
same,T/C,[3],106 % of control
C=CC(C)(CCC=C(C)C)ON(CC)CC (stereo unspecified),T/C,"dose: 100.0 mg/kg/injection, schedule: Q04DX002 (ip), vehicle: saline with Tween-80",108 % of control
same,T/C,"dose: 200.0 mg/kg/injection, schedule: Q04DX002 (ip), vehicle: saline with Tween-80",113 % of control
same,T/C,"dose: 400.0 mg/kg/injection, schedule: Q04DX002 (ip), vehicle: saline with Tween-80",92 % of control
O=C1C(Cl)=C(Cl)C(=O)c2ccccc21,T/C,"dose: 5.0 mg/kg/injection, schedule: Q01DX009 (ip), vehicle: saline with Tween-80",109 % of control
same,T/C,"dose: 5.0 mg/kg/injection, schedule: Q04DX003 (ip), vehicle: saline with Tween-80",100 % of control
same,T/C,"dose: 10.0 mg/kg/injection, schedule: Q01DX009 (ip), vehicle: saline with Tween-80",109 % of control
same,T/C,"dose: 10.0 mg/kg/injection, schedule: Q04DX003 (ip), vehicle: saline with Tween-80",100 % of control
same,T/C,"dose: 20.0 mg/kg/injection, schedule: Q01DX009 (ip), vehicle: saline with Tween-80",109 % of control
same,T/C,"dose: 20.0 mg/kg/injection, schedule: Q04DX003 (ip), vehicle: saline with Tween-80",95 % of control
Nc1nc2c(C(=O)N3CCOCC3)nnn2c2ccccc12,T/C,[4],100 % of control
same,T/C,[5],92 % of control
same,T/C,[6],96 % of control
O=C(c1ccc([N+](=O)[O-])cc1)C(Br)C(Br)c1ccncc1 (stereo unspecified),T/C,"dose: 25.0 mg/kg/injection, schedule: Q01DX009 (ip), vehicle: other",110 % of control
same,T/C,"dose: 50.0 mg/kg/injection, schedule: Q01DX009 (ip), vehicle: other",104 % of control
same,T/C,"dose: 100.0 mg/kg/injection, schedule: Q01DX009 (ip), vehicle: other",106 % of control
same,T/C,"dose: 200.0 mg/kg/injection, schedule: Q01DX009 (ip), vehicle: other",103 % of control
N=C(N)c1ccc2[nH]c(/C=C/c3cc4cc(C(=N)N)ccc4o3)cc2c1,T/C,"dose: 25.0 mg/kg/injection, schedule: Q04DX003 (ip), vehicle: suspension in saline",163 % of control
same,T/C,"dose: 50.0 mg/kg/injection, schedule: Q04DX003 (ip), vehicle: suspension in saline",160 % of control
same,T/C,"dose: 100.0 mg/kg/injection, schedule: Q04DX003 (ip), vehicle: suspension in saline",163 % of control
Cc1c([N+](=O)[O-])c(=O)oc2ccc3c(=O)ccoc3c12,T/C,[7],98 % of control
same,T/C,[8],96 % of control
same,T/C,[9],99 % of control
C=CN=NNc1ccc(OC)cc1,T/C,"dose: 100.0 mg/kg/injection, schedule: Q04DX003 (ip), vehicle: saline + Tween-80 + alcohol",116 % of control
same,T/C,"dose: 200.0 mg/kg/injection, schedule: Q04DX003 (ip), vehicle: saline + Tween-80 + alcohol",106 % of control
O=S(=O)(N1CCCCC1)n1nnc2cc3ccccc3cc21,T/C,"dose: 50.0 mg/kg/injection, schedule: Q01DX009 (ip), vehicle: acetone",98 % of control
same,T/C,"dose: 100.0 mg/kg/injection, schedule: Q01DX009 (ip), vehicle: acetone",97 % of control
same,T/C,"dose: 200.0 mg/kg/injection, schedule: Q01DX009 (ip), vehicle: acetone",97 % of control
